Ten compounds from article PMC9926234, “Iterative computational design and crystallographic screening identifies potent inhibitors targeting the Nsp3 macrodomain of SARS-CoV-2” (Proceedings of the National Academy of Sciences of the …, 2023) can be followed below.

Assay [1] deals with T1, SARS-CoV-2 NSP3 Mac1 (Severe acute respiratory syndrome coronavirus 2, UniProt P0DTD1). It counts as binding. Conditions: for Refined occupancy: ligand occupancy after refinement (phenix.refine).
Assay [2] concerns the target T1, SARS-CoV-2 NSP3 Mac1. It is filed as binding. On the set-up: contains a conserved macrodomain enzyme (Mac1). Conditions: for Spearman est (compound concentration vs apparent Tm): DSF dose responsiveness, 1 µM nsp3 mac1, adj p given. In short, it runs like this:
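Differential scanning fluorimetry using 5 µM Fluorescent Yellow dye in place of SYPRO Orange. Compounds run in triplicate at seven two-fold dilutions from 1,000 or 100 μM, with ΔTma taken against a DMSO control in the same plate region. Dose-response significance assessed by Spearman's coefficient between concentration and ΔTma.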

[3] abbreviates: PanDDA 1-BDC (background density correction) of the event, crystal soak 100 mM, PanDDA run dmso_34.
Setting [4] is: PanDDA event map, 1 minus background density correction, crystal soaking of Mac1.
Where [5] appears, read: crystal soak, compound concentration 100 mM, PanDDA run dmso_34, series docking_lead-like_1.
The mark [6] stands for this setting: ligand modeled in the crystal structure, crystal soak 100 mM, PanDDA run dmso_34.
Where [7] appears, read: overall hit flag: binding in crystallographic soaking or the HTRF-based binding assay.
The mark [8] stands for this setting: maximal thermal upshift vs DMSO control.
[9] abbreviates: true hit = binding in crystallographic soaking or the HTRF-based binding assay.

“And” between values parts separate entries of the source, which are not always exact repeats. Equal entries are not always repeated. Where two headings read alike, the source gives them in different places.

Take `O=C(c1ncnc2[nH]ccc12)N1CC=CC12CCCCC2` [ZINC000827900828]: the 1-BDC in assay [1] (setting [3]) and in assay [1] (setting [4]) was 0.18 throughout. The “PanDDA hit?” value in assay [1] (setting [5]) is listed as “TRUE”. For the same compound, in assay [1] (setting [6]), the “Modeled?” value is “TRUE”. This compound also yielded a Refined occupancy in assay [1] (crystal soaking of Mac1) of 36. In addition, in assay [1] (setting [7]), the “HIT*” value was “Y”. The “Spearman est (compound concentration vs apparent Tm)” value in assay [2] is recorded as −0.37. In assay [2] (setting [8]), the “DSF max dTma” value is 0.93 °C.

For `CC(CSc1nnc2[nH]cnn12)c1ccccc1` (centres unmarked) [ZINC000920153280], the 1-BDC in assay [1] (setting [3]) and in assay [1] (setting [4]) was 0.2 throughout. Moreover, the “PanDDA hit?” value in assay [1] (setting [5]) was “TRUE”. Further, the “Modeled?” value in assay [1] (setting [6]) is listed as “TRUE”. The Refined occupancy in assay [1] (crystal soaking of Mac1) turned out to be 40. For the same compound, in assay [1] (setting [7]), the “HIT*” value is “Y”. Further, in assay [2], the “Spearman est (compound concentration vs apparent Tm)” value was −0.66. Also, in assay [2] (setting [8]), the “DSF max dTma” value came out at 0 °C.

As to `CC1CC(C(=O)O)N1C(=O)c1cc(O)nc2ccc(F)cc12.O=C(O)C(F)(F)F` (centres unmarked) [REAL300007260658], the 1-BDC is 0.18 in assay [1] (PanDDA event map, 1-BDC of the hit dataset, crystal soak, compound concentration 100 mM) and 0.11 in assay [1] (setting [4]). In assay [1] (crystal soaking of Mac1), this compound had a Refined occupancy of 22. Moreover, the “HIT*” value in assay [1] (setting [9]) is listed as “Y”. The “Spearman est (compound concentration vs apparent Tm)” value in assay [2] is listed as −0.11. Further, the “DSF max dTma” value in assay [2] (maximal thermal upshift) is on record as 0.37 ˚C.

Take `Nc1ncnc2c1ncn2Cc1cc(-c2ccco2)on1` [ZINC000681764827]: the 1-BDC in assay [1] (setting [3]) and in assay [1] (setting [4]) was 0.16 each time. In assay [1] (setting [5]), the “PanDDA hit?” value is on record as “TRUE”. The “Modeled?” value in assay [1] (setting [6]) is “TRUE”. For the same compound, in assay [1] (crystal soaking of Mac1), the Refined occupancy is listed as 50. Further, in assay [1] (setting [7]), the “HIT*” value is on record as “Y”. For the same compound, the “Spearman est (compound concentration vs apparent Tm)” value in assay [2] came to 0.38. Further, in assay [2] (setting [8]), the “DSF max dTma” value stood at 0.63 °C.

On to `Nc1ncnc2c1ncn2Cc1cccc(C(F)(F)F)c1` [ZINC000110510893], for which the 1-BDC in assay [1] (setting [3]) and in assay [1] (setting [4]) was 0.35 throughout. In addition, the “PanDDA hit?” value in assay [1] (setting [5]) is reported as “TRUE”. For the same compound, in assay [1] (setting [6]), the “Modeled?” value is on record as “TRUE”. In addition, the Refined occupancy in assay [1] (crystal soaking of Mac1) is given as 70. Besides, in assay [1] (setting [7]), the “HIT*” value is listed as “Y”. Moreover, the “Spearman est (compound concentration vs apparent Tm)” value in assay [2] is 0.5. In addition, in assay [2] (setting [8]), the “DSF max dTma” value amounted to 0.5 °C.

For `O=c1nc(N2CC(Cn3cnnc3)C3(CCC3)C2)cc(Cl)[nH]1` (centres unmarked) [FRESH00020289192], the 1-BDC in assay [1] (setting [4]) was found to be 0.08. Further, the Refined occupancy in assay [1] (crystal soaking of Mac1) is reported as 16. Moreover, the “HIT*” value in assay [1] (setting [9]) is listed as “Y”. In assay [2], the “Spearman est (compound concentration vs apparent Tm)” value is on record as −0.17. Moreover, in assay [2] (maximal thermal upshift), the “DSF max dTma” value is recorded as 0.04 ˚C.

On to `O=C(O)C[C@@H]1CCCN(c2ncnc3nc[nH]c23)C1` [REAL250002852032], for which the 1-BDC in assay [1] (setting [4]) is listed as 0.19. The same compound came in with a Refined occupancy in assay [1] (crystal soaking of Mac1) of 38. Also, the “HIT*” value in assay [1] (setting [9]) is on record as “Y”. Moreover, the “Spearman est (compound concentration vs apparent Tm)” value in assay [2] is listed as 0.29. Also, the “DSF max dTma” value in assay [2] (maximal thermal upshift) is reported as 0.58 ˚C.

Consider `Cc1ccc(-c2nc(Cn3cnc4c(N)nc(N)nc43)cs2)o1` [Z4718398580], for which the 1-BDC in assay [1] (PanDDA 1-BDC value of the event, crystal soak, compound concentration 100 mM, per dataset) was 0.28; in assay [1] (PanDDA event map, 1-BDC of the hit dataset, crystal soak, compound concentration 100 mM, listed as Z8580), 0.35 and 0.45; in assay [1] (setting [4]), 0.45. Besides, in assay [1] (crystal soak, compound concentration 100 mM, per dataset), the “PanDDA hit?” value is “TRUE”. For the same compound, in assay [1] (ligand modeled from this dataset, crystal soak, compound concentration 100 mM), the “Modeled?” value is given as “TRUE”. This compound came in with a Refined occupancy in assay [1] (crystal soaking of Mac1) of 60. Further, the “HIT*” value in assay [1] (setting [7]) is “Y”. Moreover, in assay [2], the “Spearman est (compound concentration vs apparent Tm)” value is on record as 0.74. For the same compound, in assay [2] (setting [8]), the “DSF max dTma” value is 0.71 °C.

For the compound `CC1(C)CCC(C(=O)O)CN1C(=O)c1ncnc2[nH]ccc12` (centres unmarked) [FRESH00012962804], the 1-BDC is 0.32 and 0.28 in assay [1] (PanDDA event map, 1-BDC of the hit dataset, crystal soak, compound concentration 100 mM, listed as F2804); 0.22 in assay [1] (setting [4]). This compound displayed a Refined occupancy in assay [1] (crystal soaking of Mac1) of 44. Further, the “HIT*” value in assay [1] (setting [9]) is given as “Y”. The “Spearman est (compound concentration vs apparent Tm)” value in assay [2] came out at 0.54. In addition, the “DSF max dTma” value in assay [2] (maximal thermal upshift) is 0.62 ˚C.

In turn, `Cc1cc(S(=O)(=O)N2CCC[C@H](C(N)=O)C2)cnc1N` [ZINC001364774273] displayed a 1-BDC in assay [1] (setting [4]) of 0.1. In assay [1] (crystal soaking of Mac1), this compound registered a Refined occupancy of 20. Also, in assay [1] (setting [9]), the “HIT*” value was “Y”. Further, in assay [2], the “Spearman est (compound concentration vs apparent Tm)” value is 0.3. Further, the “DSF max dTma” value in assay [2] (maximal thermal upshift) was 0.21 ˚C.
